Assay results as given in patent US11339130B1 (Blade Therapeutics, Inc., priority 2016, dated 2022).
Like-named read-outs stand apart in the source and are kept apart here.

How the values were obtained:
Human Calpain 2/NS1 = target: T1, Human Calpain 2/NS1 (Homo sapiens, UniProt P17655); test: Calpain inhibition continuous fluorescence (FRET) assay, Human Calpain 2/NS1; assay type: biochemical; conditions: read-out: Human Calpain 2/NS1 IC50
T1 sequence (P17655 1-700): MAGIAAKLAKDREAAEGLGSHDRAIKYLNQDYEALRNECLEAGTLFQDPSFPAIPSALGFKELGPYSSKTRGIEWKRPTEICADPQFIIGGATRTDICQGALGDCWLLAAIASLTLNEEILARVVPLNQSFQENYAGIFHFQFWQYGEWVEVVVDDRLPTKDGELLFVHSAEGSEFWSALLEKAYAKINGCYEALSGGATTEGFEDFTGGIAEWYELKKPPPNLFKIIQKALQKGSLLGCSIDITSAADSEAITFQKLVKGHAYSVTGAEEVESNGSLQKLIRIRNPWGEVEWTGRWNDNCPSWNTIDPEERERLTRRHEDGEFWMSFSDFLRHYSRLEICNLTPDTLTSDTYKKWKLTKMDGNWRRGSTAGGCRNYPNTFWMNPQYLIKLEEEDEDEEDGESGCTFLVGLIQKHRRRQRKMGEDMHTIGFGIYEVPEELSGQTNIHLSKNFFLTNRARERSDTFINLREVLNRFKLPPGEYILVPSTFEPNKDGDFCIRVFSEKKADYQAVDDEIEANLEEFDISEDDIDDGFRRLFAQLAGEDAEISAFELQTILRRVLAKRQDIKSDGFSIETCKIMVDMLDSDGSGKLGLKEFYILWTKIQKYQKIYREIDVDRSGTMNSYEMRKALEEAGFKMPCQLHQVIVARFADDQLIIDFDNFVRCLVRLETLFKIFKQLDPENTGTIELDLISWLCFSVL
T1 sequence (P04632 1-268 partner): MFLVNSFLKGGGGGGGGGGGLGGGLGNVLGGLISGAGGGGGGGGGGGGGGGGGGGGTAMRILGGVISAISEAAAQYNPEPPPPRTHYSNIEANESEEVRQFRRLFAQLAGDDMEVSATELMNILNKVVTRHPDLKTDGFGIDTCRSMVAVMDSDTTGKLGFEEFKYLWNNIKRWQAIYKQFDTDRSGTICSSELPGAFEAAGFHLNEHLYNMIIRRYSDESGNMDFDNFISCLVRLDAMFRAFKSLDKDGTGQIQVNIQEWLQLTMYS
Method in brief: (§1)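 Continuous FRET read (ex 490/em 520 nm, 10 min) of calpain 1, 2 or 9 cleaving an internally quenched 5-FAM peptide, triggered by substrate with CaCl2 after enzyme–inhibitor incubation at ambient 25 °C, pH 7.5 Tris/NaCl/DTT buffer. IC50 from initial rates (1-5 min) via 4-parameter fit.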

[1] = test system: Calpain activity in SH-SY5Y cells; test: SH-SY5Y + AMC fluorescence assay (Suc-LLVY-AMC substrate); assay type: cell-based; conditions: read-out: SH-SY5Y + AMC IC50
Human Calpain 1/NS1 = target: T2, Human Calpain 1/NS1 (Homo sapiens, UniProt P07384); test: Calpain inhibition continuous fluorescence (FRET) assay, Human Calpain 1/NS1; assay type: biochemical; conditions: read-out: Human Calpain 1/NS1 IC50
T2 sequence (P07384 1-714): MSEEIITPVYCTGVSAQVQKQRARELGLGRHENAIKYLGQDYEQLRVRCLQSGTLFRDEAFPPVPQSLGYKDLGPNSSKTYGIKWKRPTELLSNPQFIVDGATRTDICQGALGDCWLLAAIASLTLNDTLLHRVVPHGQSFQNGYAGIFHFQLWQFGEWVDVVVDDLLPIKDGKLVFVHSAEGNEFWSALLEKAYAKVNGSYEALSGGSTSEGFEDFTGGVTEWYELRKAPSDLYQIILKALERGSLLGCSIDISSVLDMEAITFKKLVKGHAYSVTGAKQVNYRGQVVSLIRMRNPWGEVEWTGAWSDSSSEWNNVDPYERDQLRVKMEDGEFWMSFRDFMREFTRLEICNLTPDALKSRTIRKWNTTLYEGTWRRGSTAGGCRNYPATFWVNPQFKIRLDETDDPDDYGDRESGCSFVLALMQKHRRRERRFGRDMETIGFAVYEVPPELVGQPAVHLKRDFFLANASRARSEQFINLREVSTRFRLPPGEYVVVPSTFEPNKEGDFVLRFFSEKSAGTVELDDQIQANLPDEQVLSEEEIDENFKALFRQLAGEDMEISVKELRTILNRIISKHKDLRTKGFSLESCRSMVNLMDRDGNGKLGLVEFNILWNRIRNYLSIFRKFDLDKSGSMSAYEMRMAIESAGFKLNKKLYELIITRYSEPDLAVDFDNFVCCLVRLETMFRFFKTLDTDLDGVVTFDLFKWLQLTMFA
T2 sequence (P04632 1-268 partner): T1 sequence (P04632 1-268 partner)
Method in brief: as §1

[2] = test system: Calpain activity in SH-SY5Y cells (SBDP-150); test: SH-SY5Y Spectrin western blot assay (SBDP-150 breakdown product, A23187-induced); assay type: cell-based; conditions: Homo sapiens, SH-SY5Y cells, read-out: SH-SY5Y Spectrin IC50
Human Calpain 9/NS1 = target: T3, Human Calpain 9/NS1 (Homo sapiens, UniProt O14815); test: Calpain inhibition continuous fluorescence (FRET) assay, Human Calpain 9/NS1; assay type: biochemical; conditions: read-out: Human Calpain 9/NS1 IC50
T3 sequence (O14815 1-690): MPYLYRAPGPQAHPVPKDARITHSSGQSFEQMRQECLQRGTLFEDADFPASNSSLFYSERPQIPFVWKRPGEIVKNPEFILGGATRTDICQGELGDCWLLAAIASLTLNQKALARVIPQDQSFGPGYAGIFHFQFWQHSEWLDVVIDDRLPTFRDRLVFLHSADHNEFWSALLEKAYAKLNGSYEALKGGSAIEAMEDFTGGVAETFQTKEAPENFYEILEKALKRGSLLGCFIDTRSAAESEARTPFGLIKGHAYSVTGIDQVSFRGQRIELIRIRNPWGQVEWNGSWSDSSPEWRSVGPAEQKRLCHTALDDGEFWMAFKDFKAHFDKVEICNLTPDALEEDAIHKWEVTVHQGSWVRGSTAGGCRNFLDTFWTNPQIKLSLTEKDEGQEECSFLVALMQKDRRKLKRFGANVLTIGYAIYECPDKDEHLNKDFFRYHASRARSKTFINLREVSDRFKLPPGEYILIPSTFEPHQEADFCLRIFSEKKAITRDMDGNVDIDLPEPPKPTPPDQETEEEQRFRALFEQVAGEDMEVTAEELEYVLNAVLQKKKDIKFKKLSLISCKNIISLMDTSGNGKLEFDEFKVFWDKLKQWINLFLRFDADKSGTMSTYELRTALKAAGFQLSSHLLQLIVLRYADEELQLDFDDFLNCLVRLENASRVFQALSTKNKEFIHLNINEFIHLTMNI
T3 sequence (P04632 1-268 partner): T1 sequence (P04632 1-268 partner)
Method in brief: as §1

[3] = Column D, A23187-induced SBDP-150
[4] = A23187-induced SBDP-150, western blot

| IC50 (Human Calpain 2/NS1; Column B) [µM] | IC50 ([1]; Column E) [µM] | IC50 (Human Calpain 1/NS1; Column A) [µM] | IC50 [2, 3] [µM] | IC50 (Human Calpain 9/NS1; Column C) [µM] | IC50 [1] [µM] | IC50 (Human Calpain 1/NS1) [µM] | IC50 [2, 4] [µM] | IC50 (Human Calpain 9/NS1) [µM] | IC50 (Human Calpain 2/NS1) [µM] | SMILES |
| --- | --- | --- | --- | --- | --- | --- | --- | --- | --- | --- |
| < 3 | < 10 | < 3 | 10 to 25 | < 3 | – | – | – | – | – | Cc1cc(C(=O)N[C@@H](Cc2ccccc2)C(=O)C(N)=O)n(-c2ccccn2)n1 [Compound 12, (S)—N-(4-amino-3,4-dioxo-1-phenylbutan-2-yl)-3-methyl-1-(pyridin-2-yl)-1H-pyrazole-5-carboxamide] |
| < 3 | 10 to 25 | < 3 | < 10 | < 3 | – | – | – | – | – | Cc1cc(C(=O)N[C@@H](Cc2ccccc2)C(=O)C(N)=O)n(-c2ccc3ccccc3n2)n1 [Compound 15, (S)—N-(4-amino-3,4-dioxo-1-phenylbutan-2-yl)-3-methyl-1-(quinolin-2-yl)-1H-pyrazole-5-carboxamide] |
| < 3 | 10 to 25 | < 3 | 10 to 25 | < 3 | – | – | – | – | – | Cc1cc(C(=O)N[C@@H](Cc2ccccc2)C(=O)C(N)=O)n(-c2cccc(-c3ccccc3)c2)n1 [Compound 16, (S)-1-([1,1′-biphenyl]-3-yl)-N-(4-amino-3,4-dioxo-1-phenylbutan-2-yl)-3-methyl-1H-pyrazole-5-carboxamide] |
| < 3 | > 25 | < 3 | < 10 | < 3 | – | – | – | – | – | Cc1cc(C(=O)N[C@@H](Cc2ccccc2)C(=O)C(N)=O)n(-c2ccc(S(C)(=O)=O)cc2)n1 [Compound 17, (S)—N-(4-amino-3,4-dioxo-1-phenylbutan-2-yl)-3-methyl-1-(4-(methylsulfonyl)phenyl)-1H-pyrazole-5-carboxamide] |
| < 3 | > 25 | < 3 | 10 to 25 | < 3 | – | – | – | – | – | Cc1cc(C(=O)N[C@@H](Cc2ccccc2)C(=O)C(N)=O)n(-c2ccc(OC(F)(F)F)cc2)n1 [Compound 19, (S)—N-(4-amino-3,4-dioxo-1-phenylbutan-2-yl)-3-methyl-1-(4-(trifluoromethoxy)phenyl)-1H-pyrazole-5-carboxamide] |
| < 3 | > 25 | < 3 | 10 to 25 | < 3 | – | – | – | – | – | Cc1noc(-c2ccccc2)c1C(=O)N[C@@H](Cc1ccccc1)C(=O)C(N)=O [Compound 23, (S)—N-(4-amino-3,4-dioxo-1-phenylbutan-2-yl)-3-methyl-5-phenylisoxazole-4-carboxamide] |
| < 3 | > 25 | < 3 | > 25 | < 3 | – | – | – | – | – | NC(=O)C(=O)[C@H](Cc1ccccc1)NC(=O)c1cncn1-c1ccccn1 [Compound 24, (S)—N-(4-amino-3,4-dioxo-1-phenylbutan-2-yl)-1-(pyridin-2-yl)-1H-imidazole-5-carboxamide] |
| < 3 | < 10 | < 3 | < 10 | < 3 | – | – | – | – | – | Cc1nc(-c2ccccc2)c(C(=O)N[C@@H](Cc2ccccc2)C(=O)C(N)=O)o1 [Compound 26, (S)—N-(4-amino-3,4-dioxo-1-phenylbutan-2-yl)-2-methyl-4-phenyloxazole-5-carboxamide] |
| < 3 | > 25 | < 3 | 10 to 25 | < 3 | – | – | – | – | – | Cc1onc(-c2ccccc2)c1C(=O)N[C@@H](Cc1ccccc1)C(=O)C(N)=O [Compound 27, (S)—N-(4-amino-3,4-dioxo-1-phenylbutan-2-yl)-5-methyl-3-phenylisoxazole-4-carboxamide] |
| < 3 | < 10 | < 3 | < 10 | < 3 | – | – | – | – | – | NC(=O)C(=O)[C@H](Cc1ccccc1)NC(=O)c1nnsc1-c1ccccc1 [Compound 28, (S)—N-(4-amino-3,4-dioxo-1-phenylbutan-2-yl)-5-phenyl-1,2,3-thiadiazole-4-carboxamide] |
| < 3 | 10 to 25 | < 3 | < 10 | < 3 | – | – | – | – | – | NC(=O)C(=O)[C@H](Cc1ccccc1)NC(=O)c1c[nH]nc1-c1ccccc1 [Compound 30, (S)—N-(4-amino-3,4-dioxo-1-phenylbutan-2-yl)-3-phenyl-1H-pyrazole-4-carboxamide] |
| < 3 | < 10 | < 3 | < 10 | < 3 | – | – | – | – | – | CCc1cc(C(=O)N[C@@H](Cc2ccccc2)C(=O)C(N)=O)n(-c2ccccc2)n1 [Compound 33, (S)—N-(4-amino-3,4-dioxo-1-phenylbutan-2-yl)-3-ethyl-1-phenyl-1H-pyrazole-5-carboxamide] |
| < 3 | 10 to 25 | < 3 | > 25 | < 3 | – | – | – | – | – | Cn1ncc(C(=O)N[C@@H](Cc2ccccc2)C(=O)C(N)=O)c1-c1ccccc1 [Compound 45, (S)—N-(4-amino-3,4-dioxo-1-phenylbutan-2-yl)-1-methyl-5-phenyl-1H-pyrazole-4-carboxamide] |
| – | – | – | – | – | < 10 | < 3 | < 10 | < 3 | – | NC(=O)C(=O)[C@H](Cc1ccccc1)NC(=O)c1cn(C(F)F)nc1-c1ccccc1 [Compound 379, (S)—N-(4-amino-3,4-dioxo-1-phenylbutan-2-yl)-1-(difluoromethyl)-3-phenyl-1H-pyrazole-4-carboxamide] |
| – | – | – | – | – | < 10 | < 3 | 10 to 25 | – | < 3 | CCn1cc(C(=O)NC(Cc2ccccc2)C(=O)C(N)=O)c(-c2cccc(F)c2)n1 (stereo not shown) [Compound 470, N-(4-amino-3,4-dioxo-1-phenylbutan-2-yl)-1-ethyl-3-(3-fluorophenyl)-1H-pyrazole-4-carboxamide] |
